Measurements taken from patent US6737383B1, “Herbicidal oxadiazolidines” (priority 1999, dated 2004).

Key:
[1] = test system: bedstraw; assay: Test B pre/postemergence bedstraw; type: in vivo, Galium aparine; settings: Preemergence
Summary of the method: (§1)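 Response is a visual 0-to-10 score relative to untreated plants, where 0 means no effect and 10 means complete control, taken twelve to sixteen days after application. Treatments went onto soil at planting and onto foliage of 1- to 4-leaf plants, using a surfactant-containing non-phytotoxic solvent.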

[2] = test system: morningglory; assay: Test B pre/postemergence morningglory; type: in vivo, Ipomoea hederacea; settings: Preemergence
Summary of the method: as §1

[3] = test system: wheat; assay: Test B pre/postemergence wheat; type: in vivo, Triticum aestivum; settings: Preemergence
Summary of the method: as §1

[4] = test system: cocklebur; assay: Test B pre/postemergence cocklebur; type: in vivo, Xanthium strumarium; settings: Preemergence
Summary of the method: as §1

[5] = test system: duck salad; assay: Test B flood test duck salad; type: in vivo, Heteranthera limosa
Summary of the method: (§2)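 Plants were grown to the 2-leaf stage before treatment with test chemical, then held in a greenhouse for twelve to sixteen days. Injury was visually rated against untreated controls on a 0–10 scale, where 0 is no effect and 10 is complete control.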

[6] = test system: sugar beet; assay: Test B pre/postemergence sugar beet; type: in vivo, Beta vulgaris; settings: Preemergence
Summary of the method: as §1

[7] = test system: rice; assay: Test B flood test rice; type: in vivo, Oryza sativa
Summary of the method: as §2

[8] = test system: soybean; assay: Test B pre/postemergence soybean; type: in vivo, Glycine max; settings: Preemergence
Summary of the method: as §1

[9] = test system: giant foxtail; assay: Test B pre/postemergence giant foxtail; type: in vivo, Setaria faberii; settings: Preemergence
Summary of the method: as §1

[10] = test system: purple nutsedge; assay: Test B pre/postemergence purple nutsedge; type: in vivo, Cyperus rotundus; settings: Preemergence
Summary of the method: as §1

[11] = test system: smallflower flatsedge; assay: Test B flood test smallflower flatsedge; type: in vivo, Cyperus difformis
Summary of the method: as §2

[12] = test system: surinam grass; assay: Test B pre/postemergence surinam grass; type: in vivo, Brachiaria decumbens; settings: Preemergence
Summary of the method: as §1

[13] = test system: bamyardgrass; assay: Test B flood test barnyardgrass; type: in vivo, Echinochloa crus-galli
Summary of the method: as §2

[14] = test system: wild oat; assay: Test B pre/postemergence wild oat; type: in vivo, Avena fatua; settings: Preemergence
Summary of the method: as §1

[15] = test system: crabgrass; assay: Test B pre/postemergence crabgrass; type: in vivo, Digitaria sanguinalis; settings: Preemergence
Summary of the method: as §1

[16] = test system: velvetleaf; assay: Test B pre/postemergence velvetleaf; type: in vivo, Abutilon theophrasti; settings: Preemergence
Summary of the method: as §1

[17] = test system: rape; assay: Test B pre/postemergence rape; type: in vivo, Brassica napus; settings: Preemergence
Summary of the method: as §1

[18] = test system: corn; assay: Test B pre/postemergence corn; type: in vivo, Zea mays; settings: Preemergence
Summary of the method: as §1

[19] = test system: blackgrass; assay: Test B pre/postemergence blackgrass; type: in vivo, Alopecurus myosuroides; settings: Preemergence
Summary of the method: as §1

[20] = test system: pigweed; assay: Test B pre/postemergence pigweed; type: in vivo, Amaranthus retroflexus; settings: Preemergence
Summary of the method: as §1

[21] = Rate 62 g/ha, scale of 0 to 10 where 0 is no effect and 10 is complete control
[22] = Rate 125 g/ha, scale of 0 to 10 where 0 is no effect and 10 is complete control
[23] = Rate 250 g/ha, scale 0 (no effect) to 10 (complete control)
[24] = Rate 500 g/ha, scale of 0 to 10 where 0 is no effect and 10 is complete control
[25] = Pre-emergence, Rate 62 g/ha, scale 0 to 10, 0 is no effect, 10 is complete control
[26] = Rate 125 g/ha, Pre-emergence section (flood test species), scale 0 to 10, 0 no effect, 10 complete control
[27] = Rate 250 g/ha, Pre-emergence (flood test species), scale 0 to 10, 0 is no effect, 10 is complete control
[28] = Rate 500 g/ha, Pre-emergence section of Table B, 0 to 10 scale (0 no effect, 10 complete control)

SMILES: CC(C)N(C(=O)n1oc(=O)n(CC2CCCCO2)c1=O)c1ccc(F)cc1F (stereo not shown) [Compound 715]
- Bedstraw plant response rating [1, 21]: 0
- Plant response rating, Bedstraw [1, 22]: 0
- Bedstraw plant response rating [1, 23]: 0
- Morningglory plant response rating [2, 21]: 0
- Plant response rating, Morningglory [2, 22]: 1
- Morningglory plant response rating [2, 23]: 2
- Wheat plant response rating [3, 21]: 0
- Plant response rating, Wheat [3, 22]: 0
- Wheat plant response rating [3, 23]: 3
- Cocklebur plant response rating [4, 21]: 0
- Plant response rating, Cocklebur [4, 22]: 0
- Cocklebur plant response rating [4, 23]: 0
- Plant response rating, Cocklebur [4, 24]: 0
- Ducksalad plant response rating [5, 25]: 0
- Ducksalad plant response rating [5, 26]: 0
- Ducksalad plant response rating [5, 27]: 0
- Ducksalad plant response rating [5, 28]: 0
- Sugarbeets plant response rating [6, 21]: 4
- Plant response rating, Sugarbeets [6, 22]: 5
- Sugarbeets plant response rating [6, 23]: 7
- Rice plant response rating [7, 25]: 0
- Rice plant response rating [7, 26]: 0
- Rice plant response rating [7, 27]: 0
- Rice plant response rating [7, 28]: 0
- Soybean plant response rating [8, 21]: 0
- Plant response rating, Soybean [8, 22]: 0
- Soybean plant response rating [8, 23]: 0
- Giant foxtail plant response rating [9, 21]: 10
- Plant response rating, Giant foxtail [9, 22]: 10
- Giant foxtail plant response rating [9, 23]: 10
- Nutsedge plant response rating [10, 21]: 0
- Plant response rating, Nutsedge [10, 22]: 0
- Nutsedge plant response rating [10, 23]: 0
- S. Flatsedge plant response rating [11, 25]: 0
- S. Flatsedge plant response rating [11, 26]: 0
- S. Flatsedge plant response rating [11, 27]: 0
- S. Flatsedge plant response rating [11, 28]: 0
- B. signalgrass plant response rating [12, 21]: 8
- Plant response rating, B. signalgrass [12, 22]: 8
- B. signalgrass plant response rating [12, 23]: 9
- Plant response rating, B. signalgrass [12, 24]: 10
- Barnyardgrass plant response rating [13, 25]: 0
- Barnyardgrass plant response rating [13, 26]: 0
- Barnyardgrass plant response rating [13, 27]: 0
- Barnyardgrass plant response rating [13, 28]: 0
- Wild oats plant response rating [14, 21]: 9
- Plant response rating, Wild oats [14, 22]: 9
- Wild oats plant response rating [14, 23]: 9
- Crabgrass plant response rating [15, 21]: 9
- Plant response rating, Crabgrass [15, 22]: 9
- Crabgrass plant response rating [15, 23]: 10
- Velvetleaf plant response rating [16, 21]: 0
- Plant response rating, Velvetleaf [16, 22]: 5
- Velvetleaf plant response rating [16, 23]: 6
- Rape plant response rating [17, 21]: 2
- Plant response rating, Rape [17, 22]: 8
- Rape plant response rating [17, 23]: 8
- Corn plant response rating [18, 21]: 0
- Plant response rating, Corn [18, 22]: 0
- Corn plant response rating [18, 23]: 2
- Blackgrass plant response rating [19, 21]: 9
- Plant response rating, Blackgrass [19, 22]: 9
- Blackgrass plant response rating [19, 23]: 9
- Plant response rating, Blackgrass [19, 24]: 10
- Redroot pigweed plant response rating [20, 21]: 8
- Plant response rating, Redroot pigweed [20, 22]: 9
- Redroot pigweed plant response rating [20, 23]: 10
